# In US20260294885A1, “TREATMENT OF INFLAMMATORY CONDITIONS COMPRISING IMU-856” (IMMUNIC AG, priority 2023, published 2026):
# Entries after “also recorded” stand apart in the source; their conditions may differ. Read-outs that look alike come from different tables or passages of the source.
# Columns and labels:
# [1] = tested on: patients with celiac disease; test: Mean corpuscular hemoglobin concentration, Part C; format: in vivo, human; conditions: Baseline to Day 29
# Text: Since hemoglobin is the molecule to which oxygen attaches, MCHC is a measure of the average oxygen-carrying capacity of the red blood cells in circulating the body (https://www.verywellhealth.com/mean-cell-hemoglobin-concentration-4584155).
# [2] = tested on: CaCo2 cells; test: In vitro intestinal barrier function model (TEER, Example 2); format: cell-based, human; conditions: compared to vehicle control, after 4 h chemical challenge
# Text: (§1) CaCo2 cell line is derived from human epithelial cells from the colon. They are frequently used to mimic intestinal barrier function to either look at permeability of drugs or to look at is functional resistance. For the present experiment, the CaCo2 cells were used to mimic the loss of its barrier function upon challenging the cells with [COMPOUND LEFT OUT] sulfonic acid [COMPOUND LEFT OUT] and investigate the effect of IMU-856 on this by measuring the electrical transepithelial resistance (TEER). […] For this CaCo2 cells, cultivated in a 6-well trans well plate on top of the membrane that has small pores that prevent the cells from going through but allow molecules and nutrients to pass. After 3 weeks, when the TEER is stable, the monolayer is challenged with 0.25% [COMPOUND LEFT OUT] stimulation for 4 h. Then, cells were washed and fresh medium with vehicle or IMU-856 was given. TEER was measured before and after challenge at different time points. For correct measurement, the shorter electrode is inserted into the transwell chamber (without touching the cells), and the longer electrode is inserted in the outer well.
# [3] = tested on: other members of the human SIRT protein family; test: Selectivity over other members of the SIRT family; format: biochemical
# [4] = tested on: other histone deacetylases (HDACs); test: Enzymatic activity of other histone deacetylases; format: biochemical
# [5] = tested on: healthy subjects; test: Phase I safety in healthy subjects (Parts A and B); format: in vivo, human
# Procedure: In Part A, healthy subjects were randomised to single ascending doses of IMU-856 (10 mg to 160 mg) or placebo. In Part B healthy subjects were randomised to multiple once-daily doses of IMU-856 (40, 80, and 160 mg) or placebo for 14 days. Part C randomised patients with celiac disease who were on a gluten-free diet to multiple once-daily doses of IMU-856 (80 mg and 160 mg) or placebo for 28 days; a once-daily gluten challenge (6 g) was introduced on Day 14 and ended on Day 28. 71 healthy subjects were enrolled in Part A and B (N=19 placebo and N=52 IMU-856) and 43 patients with CelD in Part C (N=14 placebo; N=14 for 80 mg, and N=15 for 160 mg). In Parts A and B, treatment-emergent adverse events (TEAEs) occurred in 24 (73%) and 15 (79%) of subjects receiving any dose of IMU-856 compared to 6 (50%) and 5 (71%) with placebo, respectively. […] In Part C, the most common adverse events with any dose of IMU-856 by preferred term were headache (13 [45%]), nausea (9 [31%]), diarrhoea (8 [28%]), and abdominal distension (7 [24%]). […] In Part C, the mean change in villous height from baseline to Day 29 with 80 mg and 160 mg was −20.9±34.8 μm, and −22.5±51.1 μm, respectively, and −60.3±52.2 μm with placebo. […] Mean change in plasma citrulline increased with 80 mg and 160 mg from baseline to Day 14 (2.4±6.2 and 6.1±5.9 μmol/L, respectively) and from baseline to Day 29 (2.8±7.6 and 2.2±5.3 μmol/L, respectively), but not with placebo (−2.7±5.6 and −4.0±6.5 μmol/L). […] Mean increase in zinc levels from baseline to Day 29 with 80 mg and 160 mg were 0.3±1.4 and 0.9±2.1 μmol/L compared to a mean decrease in placebo (−0.9±2.1 μmol/L). Gluten-induced symptoms were also attenuated by IMU-856.
# [6] = biological target: T1, SIRT6 (Homo sapiens, UniProt Q8N6T7); test: SIRT6 deacetylation of acetylated H3K56 in a cellular system; format: cell-based
# T1 sequence (Q8N6T7 whole entry): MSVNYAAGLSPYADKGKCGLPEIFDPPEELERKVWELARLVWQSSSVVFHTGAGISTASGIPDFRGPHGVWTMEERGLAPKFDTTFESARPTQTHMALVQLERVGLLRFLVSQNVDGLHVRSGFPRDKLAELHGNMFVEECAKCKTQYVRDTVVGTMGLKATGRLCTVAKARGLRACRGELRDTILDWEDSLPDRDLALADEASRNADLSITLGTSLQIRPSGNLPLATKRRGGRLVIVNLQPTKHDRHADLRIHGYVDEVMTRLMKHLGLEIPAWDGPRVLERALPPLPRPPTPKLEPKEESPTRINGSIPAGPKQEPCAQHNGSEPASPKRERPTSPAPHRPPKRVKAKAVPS
# [7] = Pharmacokinetics in celiac disease patients, Part C; format: in vivo, human; conditions: for Cmax at 192 h / Tmax at 192 h / AUC(0-t) at 192 h: human, in vivo, Day 8, mean; for AUC(0-t) at 192 h: read-out: AUC0-t last
# Procedure: FIG. 1 illustrates the flow chart of part C in celiac disease (CelD) designed as proof-of-concept study with a gluten challenge trial. Part C was planned to include a well-controlled celiac disease patient population: The patients were 100% seronegative, indicating absence of ongoing substantial gluten exposure and was performed at sites in Australia and New Zealand. Part C was designed to assess safety, tolerability and pharmacokinetics of IMU-856 and measured also histologic changes, blood biomarkers, nutrient uptake and disease-related symptoms.
# [8] = tested on: claudin-2; test: Tight junction protein claudin-2 in a TEER model; format: cell-based, human
# Text: (§2) In one TEER model, tight junction (TJ)-related proteins were investigated, and a normalisation of TJ proteins (claudin (Cldn)-1 and claudin-2) was observed.
# [9] = tested on: sirtuin 6 protein (SIRT6); test: SIRT6 protein stabilization
# [10] = tested on: colorectal adenocarcinoma-2 (Caco-2) cells; test: TEER recovery across a Caco-2 monolayer following inflammation with TNF-α or IL-6; format: cell-based, human
# Text: as §2
# as §1, with “loss of its barrier function upon challenging the cells with [COMPOUND LEFT OUT] sulfonic acid [COMPOUND” left out, “After 3 weeks, when the TEER is stable, the monolayer is challenged with 0.25% [COMPOUND LEFT OUT] stimulation for 4 h.” left out
# [11] = tested on: claudin (Cldn)-1; test: Tight junction protein claudin-1 in a TEER model; format: cell-based, human
# Text: as §2
# [12] = biological target: T1, SIRT6; test: Inhibition of SIRT6 deacetylation of acetylated H3K56, in vitro cell free; format: biochemical
# [13] = Part A, any single dose (10 mg to 160 mg)
# [14] = Part B, any dose (40, 80, 160 mg once daily, 14 days)
smiles,measurement,setting,value
"Cn1c(COc2cc(C(F)(F)F)ccn2)nnc1[C@H]1CC[C@H](c2cnn([C@H]3CC[C@H](N4CC5(CCO5)C4)CC3)c2)CC1 [IMU-856, 6-(trans-4-(4-(trans-4-(4-methyl-5-(((4-(trifluoromethyl)pyridin-2-yl)oxy)methyl)-4H-1,2,4-triazol-3-yl)cyclohexyl)-1H-pyrazol-1-yl)cyclohexyl)-1-oxa-6-azaspiro[3.3]heptane]",mean corpuscular hemoglobin concentration (MCHC),[1],higher mean corpuscular hemoglobin concentration; also recorded: improvement in red blood cell function
same,TEER,[2],higher TEER
same,TEER recovery rate,[2],higher recovery rate
same,selectivity for SIRT6 over other SIRT family members,[3],highly selective for SIRT6
same,inhibition of enzymatic activity of other HDACs,[4],does not inhibit
same,subjects with TEAEs (number),[5]; [13],24
same,subjects with TEAEs (percentage),[5]; [13],73%
same,serious adverse events,[5]; Part B,1
same,subjects with TEAEs (number),[5]; [14],15
same,subjects with TEAEs (percentage),[5]; [14],79%
same,severity of TEAEs,[5]; Parts A and B,mild in severity
same,deacetylation of H3K56,[6],prevents the deacetylation
same,achievement of steady state,[7]; Part C,fast achievement of steady state
same,dose linearity of plasma Cmax and AUC,[7]; Part C,linear pharmacokinetics with dose-proportional increase
same,mean trough levels / exposure over dosing period,[7]; Part C,constant exposure within the whole dosing period
same,Cmax at 192 h,[7]; IMU-856 80 mg,354 ng/mL
same,Tmax at 192 h,[7]; IMU-856 80 mg,1.9 h
same,AUC(0-t) at 192 h,[7]; IMU-856 80 mg,1570 ng·h/mL
same,Cmax at 192 h,[7]; IMU-856 160 mg,766 ng/mL
same,Tmax at 192 h,[7]; IMU-856 160 mg,1.5 h
same,AUC(0-t) at 192 h,[7]; IMU-856 160 mg,3610 ng·h/mL
same,claudin-2,[8],normalisation
same,stabilization of sirtuin 6 protein,[9],stabilizer
same,recovery of TEER,[10]; following inflammation with IL-6,significantly accelerates the recovery
same,recovery of TEER,[10]; following inflammation with TNF-α,significantly accelerates the recovery
same,claudin-1,[11],normalisation
same,inhibition of deacetylase activity of SIRT6,[12],selective inhibitor of the deacetylase activity
same,deacetylation of H3K56,[12]; in vitro cell free system,prevents the deacetylation
